This passage reports Ki results from article PMC3365592 (European Journal of Medicinal Chemistry, 2012).

One assay deals with T1, 5-HT1A receptors (Rattus norvegicus, UniProt P19327).
T1 sequence (P19327 1-422): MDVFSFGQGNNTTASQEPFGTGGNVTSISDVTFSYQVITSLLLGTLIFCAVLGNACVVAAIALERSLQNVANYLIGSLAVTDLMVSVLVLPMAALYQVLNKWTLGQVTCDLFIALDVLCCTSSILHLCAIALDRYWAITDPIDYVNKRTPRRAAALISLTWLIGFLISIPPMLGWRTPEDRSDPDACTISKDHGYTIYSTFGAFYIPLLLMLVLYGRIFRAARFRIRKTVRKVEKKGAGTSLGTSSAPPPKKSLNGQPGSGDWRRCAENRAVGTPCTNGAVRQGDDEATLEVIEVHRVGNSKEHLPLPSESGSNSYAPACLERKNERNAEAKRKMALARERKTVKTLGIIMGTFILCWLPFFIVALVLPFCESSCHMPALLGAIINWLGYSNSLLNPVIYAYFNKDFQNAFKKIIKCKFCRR
In words: 5-HT1A receptor binding experiments.
Conditions: not given
Turning to `O=C1CC2(CCCC2)CC(=O)N1CCCCN1CCN(c2ccc3cc([N+](=O)[O-])ccc3n2)CC1` [Compound 6, 8-{4-[4-(6-Nitro-quinolin-2-yl)-piperazin-1-yl]-butyl}-8-aza-spiro[4.5]decane-7,9-dione], the Ki (as a rule, the equilibrium dissociation constant of an inhibitor or competing ligand from its target) worked out at 1100 ± 400 nM. In the case of `CC1(C)CC(=O)N(CCCCN2CCN(c3ccc4cc([N+](=O)[O-])ccc4n3)CC2)C(=O)C1` [Compound 8, 4,4-Dimethyl-1-{4-[4-(6-nitro-quinolin-2-yl)-piperazin-1-yl]-butyl}-piperidine-2,6-dione], the affinity, expressed as Ki, was 2100 ± 400 nM.

`CC1CN(c2ccc3cc([N+](=O)[O-])ccc3n2)CCN1CCCCN1C(=O)CCCC1=O` (stereo not shown) [Compound 3, 1-{4-[2-Methyl-4-(6-nitroquinolin-2-yl)piperazin-1-ylo]butyl}piperidine-2,6-dione] gave a Ki of 711 ± 21 nM.

Compound `CC1(C)CC(=O)N(CCCCN2CCN(c3ccc4c(Cl)cccc4n3)CC2)C(=O)C1` [Compound 10, 1-{4-[4-(5-Chloroquinolin-2-yl)piperazin-1-yl]butyl}-4,4-di-methylopiperydine-2,6-dione] gave a Ki of 1400 ± 100 nM. In turn, `O=C1CCCC(=O)N1CCCCN1CCN(c2ccc3cc([N+](=O)[O-])ccc3n2)CC1` [Compound 4, 1-{4-[4-(6-Nitro-quinolin-2-yl)-piperazin-1-yl]-butyl}-piperidine-2,6-dione] displayed a Ki of 10600 ± 3500 nM.

In turn, `O=C1c2ccccc2C(=O)N1CCCCN1CCN(c2ccc3cc([N+](=O)[O-])ccc3n2)CC1` [Compound 9, 2-{4-[4-(6-Nitro-quinolin-2-yl)-piperazin-1-yl]-butyl}-isoindole-1,3-dione] registered a Ki of 59000 ± 23100 nM.

The target in the next assay is T1, 5-HT1A receptors.
Assay: not given
The settings on record: read-out: 5-HT1A Ki ± SEM; cited from earlier work.
`CC1CN(c2ccc3ccccc3n2)CCN1CCCCN1C(=O)CC(C)(C)CC1=O` (stereo not shown) [Compound 18]: the Ki is 15 ± 3 nM. `CC1CN(c2ccc3ccccc3n2)CCN1CCCCN1C(=O)c2ccccc2C1=O` (stereo not shown) [Compound 12]: the Ki was 13 nM. `O=C1c2ccccc2C(=O)N1CCCCN1CCN(c2ccc3ccccc3n2)CC1` [Compound 13]: the Ki is 39 nM. On to `CC1CN(c2ccc3ccccc3n2)CCN1CCCCN1C(=O)CCCC1=O` (stereo not shown) [Compound 15], for which the Ki is 37 ± 6 nM. For `CC1CN(c2ccc3ccccc3n2)CCN1CCCN1C(=O)c2ccccc2C1=O` (stereo not shown) [Compound 14], the Ki is 275 nM. As for `CC1CN(c2ccc3ccccc3n2)CCN1CCCCN1C(=O)CC2(CCCC2)CC1=O` (stereo not shown) [Compound 16], the Ki was 24 ± 3 nM. Take `CC1(C)CC(=O)N(CCCCN2CCN(c3ccc4ccccc4n3)CC2)C(=O)C1` [Compound 19]: the Ki is 11 ± 2 nM.
